The target in one assay is T1, Human CCR5 (Homo sapiens, UniProt P51681).
T1 construct: expressed in transfected cells; host or cells: CHO K1
Description: CCR5 membrane binding assay ([I-125]MIP-1α). To be noted: table does not name the assay; b437 says 'in these assays'. The method, then: Human CCR5 is used to generate stable transfectants in CHO K1 cells. Membranes prepared from these CCR5 transfectants are used in a radioligand binding assay using 125-1-MIP-1α as a ligand and the compounds of formula I are tested for inhibitory activity. The data are reported as IC50, i.e. the concentration of compound required to achieve 50% inhibition of [I-125]MIP-1α binding. In this assay, compounds of formula I have an IC50 between 0.004 and 10 μM.

Another assay relates to CCR2 receptor. Description: Receptor occupancy of the CCR2 receptor over time (blood monocytes, FACS). To be noted: dose 10 mg/kg. In kind it is in vivo. The procedure:
The Agents of the Invention typically have a favourable pharmacokinetic profile, i.e. such as a relatively fast elimination over time. A faster elimination is typically indicative for an improved tolerability or is typically associable with less side effects. Such may be assessed by determining for example the receptor occupancy of the CCR2 receptor over time.
Receptor occupancy assaying may be performed in 96-well plates. 45 microliters of freshly obtained blood samples are incubated with 5 microliter of a MCP-1 solution (several concentrations for assessing a biding curve). The concentration of said MCP-1 solution is from 0.01 to 100 nanomolar, whereby the dilutions are made in RPMI1640 with glutamax supplemented with 1% nonessential amino acids, sodium pyruvate, penicillin/streptomycin, […] beta-mercaptoethanol and 1% human albumin.
Said incubation is carried out for 30 min at 37° C., and is then stopped by adding 180 microliter BD FACS lysis solution followed by centrifugation. Said lysis addition and centrifugation is repeated once and the remaining cells are then washed with ice cold FACS buffer ([…] containing 2% FCS and 0.1% NaN3). Thereupon, the cells are stained with antibodies for FACS analysis.
The cells are now triple stained with FITC-conjugated anti-CD14, PE-conjugated anti-HLA-DR and APC-conjugated anti-CCR2. The antibodies are diluted into FACS buffer, supplemented with 3 mg/ml juman IgG, and the staining is performed in a total of 25 microliter for 30 min. on ice. The stained cells are washed twice with cold FACS buffer and then analyzed by flow cytometry using a FACScalibur and CellQuest software. The expression of CCR2 on CD-14- and HLA-DR-positive monocytes is determined and expressed as mean fluorescence intensity (MFI). The relative CCR2 expression is expressed as percent of control staining.

The target in a further assay is T2, hCCR2b (Homo sapiens, UniProt P41597).
T2 construct: expressed in transfected cells; host or cells: CHO-dukX
T2 sequence (P41597 1-360 isoform P41597-2): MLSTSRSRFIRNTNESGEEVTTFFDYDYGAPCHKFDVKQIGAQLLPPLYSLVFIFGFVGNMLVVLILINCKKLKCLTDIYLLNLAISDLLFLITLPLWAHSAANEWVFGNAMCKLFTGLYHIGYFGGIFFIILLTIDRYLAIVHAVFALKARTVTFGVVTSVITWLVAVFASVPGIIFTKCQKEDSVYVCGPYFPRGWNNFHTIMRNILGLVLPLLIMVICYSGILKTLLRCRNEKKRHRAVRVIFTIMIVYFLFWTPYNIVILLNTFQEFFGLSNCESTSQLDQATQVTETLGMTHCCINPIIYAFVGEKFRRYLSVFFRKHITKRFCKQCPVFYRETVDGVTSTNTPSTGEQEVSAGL
Description: CCR2 membrane binding assay (SPA, [125I] MCP-1). As to conditions: table does not name the assay; b437 says 'in these assays'. The method, then:
Transfected CHO-dukX cells stably expressing the hCCR2b gene are grown in MEM alpha medium to a confluency of between 70 and 80%. After discarding the medium, 30 ml ice-cold physiological buffer solution containing 1 mM EDTA are added and the cells removed from the plate using a scraper. The cell suspension is centrifuged at 800 g for 10′ at 4° C. and the cell pellet resuspended in buffer. Cell lysis is done using a Polytron PTI300D instrument at 28 000 RPM for 2 times 30 seconds on ice. Membranes are collected by centrifugation at 42 000 g for 20 minutes at 4° C. and subjected to a second round of lysis (Polytron, 28 000 RPM, 2×30 seconds on ice). Following centrifugation at 42 000 g for 20 minutes at 4° C. the membranes are resuspended in buffer at a protein concentration of 2 mg/ml and stored at −80° C. Ten millimolar stock solutions of test compounds in 100% DMSO are prepared. Test compounds are further diluted in buffer to yield the four-fold concentrated solutions for the tests that assayed a range of 10^−10 to 10^−5 M. The SPA assay is performed in a final volume of 200 μl per well in 96 well plates. The components are added per well in the following order: • 50 μl Buffer (+/−test compound) • 50 μl Wheat germ agglutinin-SPA beads (1.25 mg/well) in buffer • 50 μl CCR2B membrane suspension diluted with buffer to 0.04 mg/ml (2 μg/well), alternatively 50,000 cells per well • 50 μl [^125I] MCP-1 in buffer (60 pM final concentration, 2.5 μCi/plate)
After addition of all components the plate is sealed and incubated for 90 minutes at room temperature with constant shaking. Following incubation the plate is centrifuged at 1000 RPM in a Sorvall RC3B centrifuge for 4 minutes at room temperature and counted for 3 minutes per well in a TOP COUNT instrument (Packard). The quench-corrected counts are used for the analysis of radioligand binding.

T1 sequence (P51681 whole entry): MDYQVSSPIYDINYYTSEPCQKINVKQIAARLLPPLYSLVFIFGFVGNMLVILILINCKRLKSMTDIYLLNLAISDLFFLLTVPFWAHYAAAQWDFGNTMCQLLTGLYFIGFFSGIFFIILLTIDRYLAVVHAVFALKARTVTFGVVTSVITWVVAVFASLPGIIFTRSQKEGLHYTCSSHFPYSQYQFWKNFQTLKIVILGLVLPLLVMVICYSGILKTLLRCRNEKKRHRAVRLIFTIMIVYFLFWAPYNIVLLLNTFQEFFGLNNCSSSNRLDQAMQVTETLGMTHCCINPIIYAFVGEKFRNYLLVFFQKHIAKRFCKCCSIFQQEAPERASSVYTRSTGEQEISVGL

Take `C[C@H]1CN(CC[C@]2(O)CC[C@@H](NC(=O)c3cc4c(OCc5coc6cc(OCC7CC7)ccc56)cccc4[nH]3)CC2)CC[C@@H]1O` [Example 15, 4-(6-Cyclopropylmethoxy-benzofuran-3-ylmethoxy)-1H-indole-2-carboxylic acid {4-hydroxy-4-[2-((3S,4S)-4-hydroxy-3-methyl-piperidin-1-yl)-ethyl]-cyclohexyl}-amide]: the IC50 at Human CCR5 stood at 4.8 nM; on hCCR2b, 0.4 nM. For the same compound, the “Receptor blockade After 2 hrs in %” value with CCR2 receptor came to 103.2%. The “Receptor blockade After 24 hrs in %” value in the assay on CCR2 receptor is given as 42.6%.

Take `CCOCCOc1ccc2c(COc3cccc4[nH]c(C(=O)N[C@H]5CC[C@](O)(CCN6CC[C@H](O)[C@@H](C)C6)CC5)cc34)coc2c1` [Example 16, 4-[6-(2-Ethoxy-ethoxy)-benzofuran-3-ylmethoxy]-1H-indole-2-carboxylic acid {4-hydroxy-4-[2-((3S,4S)-4-hydroxy-3-methyl-piperidin-1-yl)-ethyl]-cyclohexyl}-amide]: the IC50 at Human CCR5 was 2.9 nM. In the assay with CCR2 receptor, the “Receptor blockade After 2 hrs in %” value amounted to 78.1% and the “Receptor blockade After 24 hrs in %” value was determined as 21.6%. The compound further yielded an IC50 at hCCR2b of 0.8 nM.

Regarding `CC(C)OCCOc1ccc2c(COc3cccc4[nH]c(C(=O)N[C@H]5CC[C@](O)(CCN6CC[C@H](O)[C@@H](C)C6)CC5)cc34)coc2c1` [Example 18, 4-[6-(2-Isopropoxy-ethoxy)-benzofuran-3-ylmethoxy]-1H-indole-2-carboxylic acid {4-hydroxy-4-[2-((3S,4S)-4-hydroxy-3-methyl-piperidin-1-yl)-ethyl]-cyclohexyl}-amide], the IC50 on Human CCR5 was 3.3 nM. In the assay on CCR2 receptor, the “Receptor blockade After 2 hrs in %” value is reported as 88.2% and the “Receptor blockade After 24 hrs in %” value is recorded as 43.5%. Also, the IC50 at hCCR2b is 0.2 nM.

Source of the values: patent publication US8354431B2, “Aryl carboxylic acid cyclohexyl amide derivatives” (Novartis AG, priority 2007, dated 2013).
